Test results: patent US10526369B2, “Oxidative modification improves the drugability of cell penetrating peptides as drug carriers” (JOWIN BIOPHARMA, priority 2016, dated 2020)
Where a SMILES comes first, the peptide text is derived from it. Bridges are numbered along the chain shown (N, C = ends). Roman numbers before positions name the chains, in order. Where no end group is shown, it is not given here. The star is where a group is joined. FITC = O=C1OC2(c3ccc(O)cc3Oc3cc(O)ccc32)c2ccc(NC(=S)*)cc21; 5FAM = O=C1OC2(c3ccc(O)cc3Oc3cc(O)ccc32)c2ccc(C(=O)*)cc21

Legend:
[1] = Stability of peptides in mice serum (HPLC of remaining peptide, t1/2 by CompuSyn); assay type: in vitro ADME; conditions: for Fold increase (of t1/2 compared with CPPecp): t1/2 of CPPecp set as one-fold; for half-life: mouse
Method: FIG. 1 illustrates the stability of CPPecp in mice serum. CPPecp was dissolved in 1× PBS (4 mg/ml) and incubated with equal volume of mice serum (final 50%) for different time points (0, 2, 5, 15, 30, 60 min, respectively). The reaction was terminated by the addition of an equal volume of TCA solution (final 50%) and denatured serum proteins were removed by centrifugation. The supernatant was then assayed by HPLC to quantify the remaining CPPecp. Zero time point was set as 100 percent of remaining CPPecp and relative amounts of CPPecp in each time point were calculated. Data represent the mean±SD (standard deviation) of three independent experiments. The t1/2 of CPPecp was calculated by CompuSyn.
FIG. 2 illustrates comparison of stabilities between CPPecp and N-terminal FITC-conjugated CPPecp in mice serum. Both were dissolved in dH2O (0.5 mg/ml) and incubated with equal volume of 20% mice serum (final 10%) for different time points (0, 2, 5, 15, 30, 60 min, respectively). The reactions were terminated by the addition of an equal volume of TCA solution (final 50%) and denatured serum proteins were removed by centrifugation. The supernatants were assayed by HPLC to quantify the remaining peptides. Zero time point was set as 100 percent of remaining peptides and relative amounts of peptides in each time point were calculated. The t1/2, of CPPecp and N-terminal FITC-CPPecp were calculated by CompuSyn.
FIG. 3 illustrates stabilities of N-terminal (5-FAM)-CPPecp-CPPecp (A) and N-terminal Ac-CPPecp (B) in mice serum. Both modified peptides were dissolved in dH2O (0.5 mg/ml) and incubated with equal volume of 20% mice serum (final 10%) for different time points (0-24 hours for (5-FAM)-CPPecp-CPPecp and 0-60 min for Ac-CPPecp, respectively). The reactions were terminated by the addition of an equal volume of TCA solution (final 50%) and denatured serum proteins were removed by centrifugation. The supernatants were assayed by HPLC to quantify the remaining peptides. Zero time point was set as 100 percent of remaining peptides and relative amounts of peptides in each time point were calculated. The t1/2 of N-terminal (5-FAM)-CPPecp-CPPecp and N-terminal Ac-CPPecp were calculated by CompuSyn.
FIG. 5 illustrates comparison of stabilities between CPPecp (A) and CPPecp-dimer (B) in mice serum. Both peptides were dissolved in 1× PBS (4 mg/ml) and incubated with equal volume of mice serum (final 50%) for different time points (0-60 min for CPPecp and 0-48 hours for CPPecp-dimer, respectively). The reactions were terminated by the addition of an equal volume of TCA solution (final 50%) and denatured serum proteins were removed by centrifugation. The supernatants were assayed by HPLC to quantify the remaining peptides. Zero time point was set as 100 percent of remaining peptides and relative amounts of peptides in each time point were calculated. Data represent the mean±SD (standard deviation) of three independent experiments. The t1/2, of CPPecp and CPPecp-dimer were calculated by CompuSyn.
The unmodified CPPecp (NH2-NYRWRCKNQN-COOH (SEQ. ID NO:2)) was synthesized by MISSION BIOTECH Inc. in TAIWAN. To determine the stability of unmodified CPPecp in mice serum, 100 μl of CPPecp (0.5 mg/ml or 4 mg/ml) was mixed with equal volume of whole mice serum (strain: CD-1 (ICR), final 50%) and incubated at room temperature for 0, 2, 5, 15, 30 and 60 min. The reaction was stopped by adding 200 μl of 100% TCA solution and vortexed for 5 seconds to precipitate serum proteins. Denatured serum proteins were removed by centrifugation at 18000 x g, 4° C. for 2 mins. The supernatants were analyzed by HPLC (column: Purospher® STAR RP-18e, eluent A: 0.1% TFA in dH2O, eluent B: 0.1% TFA in acetonitrile, flow rate: 1ml/min, gradient: 2-35% of eluent B in 15 min, UV wavelength: 280 nm). Zero-time point was set as one hundred percent of remaining CPPecp and relative amount of CPPecp in each time point were calculated. The t1/2 of CPPecp was calculated by CompuSyn (ver. 1.0). […]

[2] = tested on: lung cancer cell lines: A549, NCI-H460 and NCI-H441; assay: Toxicity in lung cancer cell lines (cell viability, MTS assay); assay type: cell-based; conditions: 0.3-30 μM, 72 hours
Method: FIG. 8 illustrates toxicities of CPPecp and CPPecp-dimer in different lung cancer cell lines. Cells were incubated with CPPecp and CPPecp-dimer in different concentrations (0, 0.3, 1, 3, 10 and 30 μM) at 37° C. for 72 hours. Cell viabilities were measured by MTS assay. The 0 μM of CPPecp (vehicle control) was set as 100 percent and the relative viabilities in each concentration were calculated.
In order to investigate the application potential of CPPecp-dimer as a drug carrier, the toxicity of CPPecp-dimer was tested and CPPecp monomer was compared in three lung cancer cell lines: A549, NCI-H460 and NCI-H441. Lung cancer cell lines were seeded in 96-well plates (2*10^3/well) and incubated overnight. After adhesion, cells were incubated with different concentrations of CPPecp and CPPecp dimer (0, 0.3, 1, 3, 10 and 30 μM) for 72 hours. Cell viabilities were determined by MST assay (Promega Corp.). The cells without treatment were set as control and 100 percent and the relative viabilities in each concentration were calculated.

NCI-H460 cells = assay: Heparan sulfate binding assay on cells (fluorescence spectrophotometer); assay type: cell-based; conditions: NCI-H460 cells pre-incubated with heparanase 5 U/ml, 37° C., 2 hours
Method: FIG. 7 illustrates binding specificity of CPPecp and CPPecp-dimer on NCI-H460 cells. Before treatment, each well (96-well plate) was blocked by 2% of BSA at 4° C. for 1 hour, and washed with PBS once. After blocking, NCI-H460 cells were incubated with 0.625, 1.25 and 2.5 μM of FITC-CPPecp and FITC-CPPecp dimer at 4° C. for 1 hour. After washing with PBS, the binding of FITC-CPPecp and FITC-CPPecp dimer were measured by fluorescence spectrophotometer (A). To test binding specificity, cells were incubated with heparanase (5 U/ml) at 37° C. for 2 hours before peptide incubation (B and C). Total peptide inputs (binding and washout) were set as 100 percent and the relative binding of FITC-CPPecp and FITC-CPPecp dimer were calculated. The data represented the means of triplicate incubations. […]
In order to certify if the specific binding affinity to heparan sulfate of disulfide linked CPPecp-dimer is still maintained as original CPPecp, the heparan sulfate binding affinity was investigated by FITC-conjugated CPPecp monomer and dimer, and measured by fluorescence spectrophotometer. […] After rinse, each well was refilled with 100 μl of 1× PBS and the fluorescence intensity was measured by fluorescence spectrophotometer (excitation: 485 nm; emission: 521 nm) as binding partition. Unbound and rinsed out peptides were obtained by adding up the fluorescence intensity of culture medium and buffer. […]

[3] = mice serum, final 10%, peptide 0.5 mg/ml in dH2O
[4] = mice serum (CD-1 (ICR)), final 50%, room temperature

N=C(N)NCCC[C@H](NC(=O)[C@H](Cc1ccc(O)cc1)NC(=O)[C@H](CC(N)=O)NC(=O)c1ccc2c(c1)C(=O)OC21c2ccc(O)cc2Oc2cc(O)ccc21)C(=O)N[C@@H](Cc1c[nH]c2ccccc12)C(=O)N[C@@H](CCCNC(=N)N)C(=O)N[C@@H](CS)C(=O)N[C@@H](CCCCN)C(=O)N[C@@H](CC(N)=O)C(=O)N[C@@H](CCC(N)=O)C(=O)N[C@@H](CC(N)=O)C(=O)N[C@@H](CC(N)=O)C(=O)N[C@@H](Cc1ccc(O)cc1)C(=O)N[C@@H](CCCNC(=N)N)C(=O)N[C@@H](Cc1c[nH]c2ccccc12)C(=O)N[C@@H](CCCNC(=N)N)C(=O)N[C@@H](CS)C(=O)N[C@@H](CCCCN)C(=O)N[C@@H](CC(N)=O)C(=O)N[C@@H](CCC(N)=O)C(=O)N[C@@H](CC(N)=O)C(=O)O [(5-FAM)-CPPecp-CPPecp] (5FAM-NYRWRCKNQNNYRWRCKNQN-OH; N-terminus and C-terminus assumed)
stability compared with unmodified CPPecp (in words) ([1]; mice serum, final 10%): prolonged its stability from 2 to 24 hours | Fold increase (of t1/2 compared with CPPecp) ([1]; mice serum): +720% | half-life [1, 3]: 19.2 min

N=C(N)NCCC[C@H](NC(=O)[C@H](Cc1c[nH]c2ccccc12)NC(=O)[C@H](CCCNC(=N)N)NC(=O)[C@H](Cc1ccc(O)cc1)NC(=O)[C@@H](N)CC(N)=O)C(=O)N[C@@H](CSSC[C@H](NC(=O)[C@H](CCCNC(=N)N)NC(=O)[C@H](Cc1c[nH]c2ccccc12)NC(=O)[C@H](CCCNC(=N)N)NC(=O)[C@H](Cc1ccc(O)cc1)NC(=O)[C@@H](N)CC(N)=O)C(=O)N[C@@H](CCCCN)C(=O)N[C@@H](CC(N)=O)C(=O)N[C@@H](CCC(N)=O)C(=O)N[C@@H](CC(N)=O)C(=O)O)C(=O)N[C@@H](CCCCN)C(=O)N[C@@H](CC(N)=O)C(=O)N[C@@H](CCC(N)=O)C(=O)N[C@@H](CC(N)=O)C(=O)O [CPPecp-dimer] (I: H-NYRWRCKNQN-OH / II: H-NYRWRCKNQN-OH; disulfide I:6-II:6)
increase of the stability of CPPecp ([1]; mice serum, final 50%): up to 180 fold | Fold increase (of t1/2 compared with CPPecp) ([1]; mice serum): +17900% | half-life [1, 4]: 420 min | effect on cell viabilities [2]: no inhibitory effect

N=C(N)NCCC[C@H](NC(=O)[C@H](Cc1c[nH]c2ccccc12)NC(=O)[C@H](CCCNC(=N)N)NC(=O)[C@H](Cc1ccc(O)cc1)NC(=O)[C@H](CC(N)=O)NC(=S)Nc1ccc2c(c1)C(=O)OC21c2ccc(O)cc2Oc2cc(O)ccc21)C(=O)N[C@@H](CS)C(=O)N[C@@H](CCCCN)C(=O)N[C@@H](CC(N)=O)C(=O)N[C@@H](CCC(N)=O)C(=O)N[C@@H](CC(N)=O)C(=O)O [FITC-CPPecp] ({FITC}-NYRWRCKNQN-OH; C-terminus assumed)
stability compared with unmodified CPPecp (in words) ([1]; mice serum, final 10%): not improved | Fold increase (of t1/2 compared with CPPecp) ([1]; mice serum): +40% | half-life [1, 3]: 3.28 min | binding percentage after heparanase treatment (NCI-H460 cells): decreased binding percentage

Ac-NYRWRCKNQN [Ac-CPPecp]
Fold increase (of t1/2 compared with CPPecp) ([1]; mice serum): −24% | half-life [1, 3]: 1.79 min

H-NYRWRCKNQN-OH [CPPecp, NH2-NYRWRCKNQN-COOH (SEQ. ID NO:2), reference compound]
Fold increase (of t1/2 compared with CPPecp) ([1]; mice serum): 0% | half-life [1, 4]: 2.34 min | effect on cell viabilities [2]: no inhibitory effect
